Laboratory results taken from the kinase profiling compilation of Christmann-Franck et al. (2016).

How the values were obtained:
Assay in all cases: KINOMEscan competition binding
Details in all cases: compound 10.0 µM
CDK18 (human) = CDK18 (human) (UniProt Q07002)
HIPK1 (human) = HIPK1 (human) (UniProt Q86Z02)
[1] = tested on: BMX (human), P51813 [V600E]
NEK7 (human) = NEK7 (human) (UniProt Q8TDX7)
MAPK15 (human) = MAPK15 (human) (UniProt Q8TD08)
ANKK1 (human) = ANKK1 (human) (UniProt Q8NFD2)
RPS6KA1 KD2 (human) = RPS6KA1 KD2 (human) (UniProt Q15418)
Chain of RPS6KA1 KD2 (human) (Q15418 whole entry, looked up): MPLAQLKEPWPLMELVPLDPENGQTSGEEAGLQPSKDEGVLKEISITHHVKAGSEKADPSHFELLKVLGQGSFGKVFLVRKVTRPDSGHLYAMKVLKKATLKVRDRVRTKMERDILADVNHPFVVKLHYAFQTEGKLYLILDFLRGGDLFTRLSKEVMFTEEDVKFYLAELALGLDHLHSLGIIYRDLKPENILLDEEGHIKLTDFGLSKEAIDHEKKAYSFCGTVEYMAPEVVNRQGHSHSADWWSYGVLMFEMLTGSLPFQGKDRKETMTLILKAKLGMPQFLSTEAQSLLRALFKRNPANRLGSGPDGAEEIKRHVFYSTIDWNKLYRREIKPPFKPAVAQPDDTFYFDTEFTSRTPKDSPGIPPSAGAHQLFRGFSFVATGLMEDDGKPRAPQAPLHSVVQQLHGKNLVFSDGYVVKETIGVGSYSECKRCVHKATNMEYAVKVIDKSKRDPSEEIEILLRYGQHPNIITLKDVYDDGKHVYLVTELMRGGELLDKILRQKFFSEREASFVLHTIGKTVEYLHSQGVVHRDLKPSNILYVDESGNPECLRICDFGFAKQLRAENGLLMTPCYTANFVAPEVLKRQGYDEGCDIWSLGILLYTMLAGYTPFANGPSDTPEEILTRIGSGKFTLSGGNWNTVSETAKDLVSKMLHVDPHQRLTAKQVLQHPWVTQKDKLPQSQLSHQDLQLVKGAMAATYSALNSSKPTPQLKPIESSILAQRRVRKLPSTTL

TSSK1B (human) = TSSK1B (human) (UniProt Q9BXA7)
SGK110 (human) = SGK110 (human) (UniProt P0C264)
BLK (human) = BLK (human) (UniProt P51451)
MAPK8 (human) = MAPK8 (human) (UniProt P45983)
RIOK3 (human) = RIOK3 (human) (UniProt O14730)
PLK3 (human) = PLK3 (human) (UniProt Q9H4B4)
ADCK3 (human) = ADCK3 (human) (UniProt Q8NI60)
PHKG2 (human) = PHKG2 (human) (UniProt P15735)
[2] = tested on: FLT3 (human), P36888 [D835Y]
RPS6KA4 KD1 (human) = RPS6KA4 KD1 (human) (UniProt O75676)
Chain of RPS6KA4 KD1 (human) (O75676 whole entry, looked up): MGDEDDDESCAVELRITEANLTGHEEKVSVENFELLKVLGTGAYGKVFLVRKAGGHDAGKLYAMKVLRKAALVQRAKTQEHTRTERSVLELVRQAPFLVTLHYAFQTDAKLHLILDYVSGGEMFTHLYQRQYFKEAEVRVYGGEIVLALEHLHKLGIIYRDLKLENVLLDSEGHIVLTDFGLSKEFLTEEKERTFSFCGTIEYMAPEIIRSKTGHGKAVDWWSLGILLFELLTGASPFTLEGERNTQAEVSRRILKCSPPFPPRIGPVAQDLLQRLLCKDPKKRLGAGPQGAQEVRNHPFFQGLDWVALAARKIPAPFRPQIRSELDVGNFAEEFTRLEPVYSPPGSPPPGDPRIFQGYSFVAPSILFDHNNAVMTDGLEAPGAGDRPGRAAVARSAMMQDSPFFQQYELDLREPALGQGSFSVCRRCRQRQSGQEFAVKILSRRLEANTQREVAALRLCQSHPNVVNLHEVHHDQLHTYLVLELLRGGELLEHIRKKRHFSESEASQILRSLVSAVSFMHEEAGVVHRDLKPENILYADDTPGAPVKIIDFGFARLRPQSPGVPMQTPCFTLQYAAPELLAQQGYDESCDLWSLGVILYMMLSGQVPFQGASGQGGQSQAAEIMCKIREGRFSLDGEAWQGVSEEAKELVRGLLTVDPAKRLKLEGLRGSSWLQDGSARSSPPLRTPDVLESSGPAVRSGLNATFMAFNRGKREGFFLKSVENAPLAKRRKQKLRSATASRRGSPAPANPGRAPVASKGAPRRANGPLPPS

PAK1 (human) = PAK1 (human) (UniProt Q13153)
BRSK1 (human) = BRSK1 (human) (UniProt Q8TDC3)
TLK1 (human) = TLK1 (human) (UniProt Q9UKI8)
FLT1 (human) = FLT1 (human) (UniProt P17948)
CDC42BPG (human) = CDC42BPG (human) (UniProt Q6DT37)
Chain of CDC42BPG (human) (Q6DT37 whole entry, looked up): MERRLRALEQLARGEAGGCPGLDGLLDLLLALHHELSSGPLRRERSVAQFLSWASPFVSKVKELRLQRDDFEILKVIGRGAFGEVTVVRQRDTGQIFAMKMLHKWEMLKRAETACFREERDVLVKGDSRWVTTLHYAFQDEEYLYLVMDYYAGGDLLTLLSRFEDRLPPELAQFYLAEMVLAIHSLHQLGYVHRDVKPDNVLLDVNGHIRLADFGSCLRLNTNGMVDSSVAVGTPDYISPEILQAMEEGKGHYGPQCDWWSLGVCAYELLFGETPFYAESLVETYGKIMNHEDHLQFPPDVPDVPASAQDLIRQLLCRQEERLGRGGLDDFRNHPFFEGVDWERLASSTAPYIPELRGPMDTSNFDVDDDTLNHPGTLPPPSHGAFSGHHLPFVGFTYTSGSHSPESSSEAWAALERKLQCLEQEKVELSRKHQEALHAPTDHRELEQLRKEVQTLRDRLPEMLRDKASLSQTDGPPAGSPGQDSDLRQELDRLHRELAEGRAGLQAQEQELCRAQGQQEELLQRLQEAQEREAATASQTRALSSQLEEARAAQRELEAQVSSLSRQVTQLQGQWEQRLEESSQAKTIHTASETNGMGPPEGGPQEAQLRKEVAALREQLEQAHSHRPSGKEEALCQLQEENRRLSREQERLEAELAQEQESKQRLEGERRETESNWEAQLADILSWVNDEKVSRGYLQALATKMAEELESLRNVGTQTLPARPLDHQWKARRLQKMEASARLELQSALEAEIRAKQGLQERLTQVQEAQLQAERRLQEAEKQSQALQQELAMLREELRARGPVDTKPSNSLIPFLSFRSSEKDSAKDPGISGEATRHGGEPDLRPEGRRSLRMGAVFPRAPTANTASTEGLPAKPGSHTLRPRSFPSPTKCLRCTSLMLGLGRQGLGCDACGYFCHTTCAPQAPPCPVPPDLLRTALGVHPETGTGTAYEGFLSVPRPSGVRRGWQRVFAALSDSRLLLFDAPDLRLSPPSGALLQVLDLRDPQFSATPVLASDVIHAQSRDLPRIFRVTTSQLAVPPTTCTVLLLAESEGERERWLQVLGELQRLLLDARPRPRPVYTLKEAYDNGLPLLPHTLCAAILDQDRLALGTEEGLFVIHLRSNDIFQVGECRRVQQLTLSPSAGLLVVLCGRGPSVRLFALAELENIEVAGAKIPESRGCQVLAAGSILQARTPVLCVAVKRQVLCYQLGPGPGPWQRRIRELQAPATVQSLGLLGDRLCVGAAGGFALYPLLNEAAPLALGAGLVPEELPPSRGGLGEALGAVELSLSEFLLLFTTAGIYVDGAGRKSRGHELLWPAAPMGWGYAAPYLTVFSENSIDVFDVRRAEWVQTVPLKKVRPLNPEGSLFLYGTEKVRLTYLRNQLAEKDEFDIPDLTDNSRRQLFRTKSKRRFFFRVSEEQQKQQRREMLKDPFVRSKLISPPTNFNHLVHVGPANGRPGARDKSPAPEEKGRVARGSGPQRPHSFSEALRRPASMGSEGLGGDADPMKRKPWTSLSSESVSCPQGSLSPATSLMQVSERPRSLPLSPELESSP

[3] = target: TYK2 JH1 catalytic (human) (UniProt P29597)
MAP4K5 (human) = MAP4K5 (human) (UniProt Q9Y4K4)
Chain of MAP4K5 (human) (Q9Y4K4 whole entry, looked up): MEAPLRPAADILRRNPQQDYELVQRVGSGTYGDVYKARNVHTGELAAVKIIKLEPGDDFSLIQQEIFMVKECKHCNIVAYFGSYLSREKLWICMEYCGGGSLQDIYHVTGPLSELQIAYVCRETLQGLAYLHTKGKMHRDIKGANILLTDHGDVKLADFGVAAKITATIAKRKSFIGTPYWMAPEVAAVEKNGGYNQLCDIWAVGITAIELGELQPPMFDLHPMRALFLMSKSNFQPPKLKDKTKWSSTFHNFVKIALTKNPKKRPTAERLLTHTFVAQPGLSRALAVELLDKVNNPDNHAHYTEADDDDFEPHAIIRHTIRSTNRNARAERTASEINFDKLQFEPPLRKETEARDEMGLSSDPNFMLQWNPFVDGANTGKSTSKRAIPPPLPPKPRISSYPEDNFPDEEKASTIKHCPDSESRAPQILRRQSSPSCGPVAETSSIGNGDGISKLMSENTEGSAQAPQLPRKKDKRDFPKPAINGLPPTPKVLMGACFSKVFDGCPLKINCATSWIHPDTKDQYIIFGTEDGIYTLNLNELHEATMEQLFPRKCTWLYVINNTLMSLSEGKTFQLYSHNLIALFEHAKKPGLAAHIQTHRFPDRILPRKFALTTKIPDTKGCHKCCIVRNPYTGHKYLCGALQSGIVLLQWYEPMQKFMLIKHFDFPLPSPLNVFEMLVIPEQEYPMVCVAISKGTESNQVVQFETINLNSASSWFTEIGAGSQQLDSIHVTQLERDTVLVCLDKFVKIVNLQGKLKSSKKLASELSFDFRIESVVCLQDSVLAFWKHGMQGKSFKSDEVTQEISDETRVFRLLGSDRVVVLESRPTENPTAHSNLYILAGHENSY

CSK (human) = CSK (human) (UniProt P41240)
TNIK (human) = TNIK (human) (UniProt Q9UKE5)
MST1R (human) = MST1R (human) (UniProt Q04912)
STK17B (human) = STK17B (human) (UniProt O94768)
CaMK1 (human) = CaMK1 (human) (UniProt Q14012)
MAP2K2 (human) = MAP2K2 (human) (UniProt P36507)
[4] = tested on: EGFR (human), P00533 [G719C]
PRKG2 (human) = PRKG2 (human) (UniProt Q13237)
Chain of PRKG2 (human) (Q13237 whole entry, looked up): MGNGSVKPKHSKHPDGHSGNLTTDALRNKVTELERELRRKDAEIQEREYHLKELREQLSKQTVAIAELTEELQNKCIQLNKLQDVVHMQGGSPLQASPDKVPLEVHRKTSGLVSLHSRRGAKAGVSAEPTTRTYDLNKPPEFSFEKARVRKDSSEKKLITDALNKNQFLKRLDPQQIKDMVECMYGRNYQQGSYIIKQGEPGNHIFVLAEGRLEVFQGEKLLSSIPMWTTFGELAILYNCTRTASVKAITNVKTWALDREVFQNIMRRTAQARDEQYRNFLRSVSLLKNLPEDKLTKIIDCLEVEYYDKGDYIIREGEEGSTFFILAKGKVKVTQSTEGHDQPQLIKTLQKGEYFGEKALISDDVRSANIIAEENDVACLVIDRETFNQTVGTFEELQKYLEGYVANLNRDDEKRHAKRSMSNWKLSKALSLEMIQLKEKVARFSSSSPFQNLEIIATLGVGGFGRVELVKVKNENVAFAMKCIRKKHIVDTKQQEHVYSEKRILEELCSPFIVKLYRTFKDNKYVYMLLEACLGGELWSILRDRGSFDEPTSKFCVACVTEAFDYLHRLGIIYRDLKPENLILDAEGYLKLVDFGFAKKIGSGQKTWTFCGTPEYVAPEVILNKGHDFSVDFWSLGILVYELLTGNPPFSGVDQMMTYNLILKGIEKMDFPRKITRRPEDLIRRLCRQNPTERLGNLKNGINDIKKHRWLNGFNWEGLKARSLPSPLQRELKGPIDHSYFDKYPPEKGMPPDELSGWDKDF

NTRK3 (human) = NTRK3 (human) (UniProt Q16288)

Chain of NEK7 (human) (Q8TDX7 whole entry, looked up): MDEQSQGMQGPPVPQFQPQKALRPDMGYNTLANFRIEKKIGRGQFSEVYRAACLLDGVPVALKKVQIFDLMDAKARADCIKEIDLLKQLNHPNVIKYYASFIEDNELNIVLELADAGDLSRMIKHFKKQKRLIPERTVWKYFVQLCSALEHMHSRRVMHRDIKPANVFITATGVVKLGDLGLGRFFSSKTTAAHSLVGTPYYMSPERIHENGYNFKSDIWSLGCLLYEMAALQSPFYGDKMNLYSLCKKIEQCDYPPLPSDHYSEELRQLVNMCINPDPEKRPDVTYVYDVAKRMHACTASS

| Compound | kinase still bound, per cent of control (CDK18 (human)) [%] | kinase still bound, per cent of control [1] [%] | kinase still bound, per cent of control (NEK7 (human)) [%] | kinase still bound, per cent of control (MAPK15 (human)) [%] | kinase still bound, per cent of control (ANKK1 (human)) [%] | kinase still bound, per cent of control (RPS6KA1 KD2 (human)) [%] | kinase still bound, per cent of control (TSSK1B (human)) [%] | kinase still bound, per cent of control (BLK (human)) [%] | kinase still bound, per cent of control (MAPK8 (human)) [%] | kinase still bound, per cent of control (RIOK3 (human)) [%] | kinase still bound, per cent of control (PLK3 (human)) [%] | kinase still bound, per cent of control (ADCK3 (human)) [%] | kinase still bound, per cent of control (PHKG2 (human)) [%] | kinase still bound, per cent of control [2] [%] | kinase still bound, per cent of control (RPS6KA4 KD1 (human)) [%] | kinase still bound, per cent of control (PAK1 (human)) [%] | kinase still bound, per cent of control (BRSK1 (human)) [%] | kinase still bound, per cent of control (TLK1 (human)) [%] | kinase still bound, per cent of control (FLT1 (human)) [%] | kinase still bound, per cent of control (CDC42BPG (human)) [%] | further results |
| --- | --- | --- | --- | --- | --- | --- | --- | --- | --- | --- | --- | --- | --- | --- | --- | --- | --- | --- | --- | --- | --- |
| COc1cc(C)c(Sc2cnc(NC(=O)c3ccc(CNC(C)C(C)C)cc3)s2)cc1C(=O)N1CCN(C(C)=O)CC1 (stereo unspecified) | 100 | 100 | 14 | 100 | 100 | 100 | 100 | 100 | 100 | 100 | 100 | 100 | 11 | 26 | 100 | 100 | 100 | 100 | 100 | 100 | kinase still bound, per cent of control (HIPK1 (human)): 100%; kinase still bound, per cent of control (SGK110 (human)): 100%; kinase still bound, per cent of control [3]: 100%; kinase still bound, per cent of control (MAP4K5 (human)): 100%; kinase still bound, per cent of control (CSK (human)): 100%; kinase still bound, per cent of control (TNIK (human)): 100%; kinase still bound, per cent of control (MST1R (human)): 100%; kinase still bound, per cent of control (STK17B (human)): 100%; kinase still bound, per cent of control (CaMK1 (human)): 100%; kinase still bound, per cent of control (MAP2K2 (human)): 100%; kinase still bound, per cent of control [4]: 100%; kinase still bound, per cent of control (PRKG2 (human)): 100%; kinase still bound, per cent of control (NTRK3 (human)): 100% |
| COc1cc(N2CCC(C(N)=O)CC2)ccc1Nc1nc(N)c(Cl)c(Nc2ccccc2S(=O)(=O)C(C)C)n1 | 100 | 100 | 100 | 100 | 100 | 30 | 100 | 22 | 4.1 | 100 | 100 | 0.1 | 13 | 5.2 | 100 | 100 | 100 | 100 | 100 | 100 | kinase still bound, per cent of control (HIPK1 (human)): 100%; kinase still bound, per cent of control (SGK110 (human)): 100%; kinase still bound, per cent of control [3]: 100%; kinase still bound, per cent of control (MAP4K5 (human)): 100%; kinase still bound, per cent of control (CSK (human)): 100%; kinase still bound, per cent of control (TNIK (human)): 100%; kinase still bound, per cent of control (MST1R (human)): 100%; kinase still bound, per cent of control (STK17B (human)): 100%; kinase still bound, per cent of control (CaMK1 (human)): 100%; kinase still bound, per cent of control (MAP2K2 (human)): 100%; kinase still bound, per cent of control [4]: 20%; kinase still bound, per cent of control (PRKG2 (human)): 100%; kinase still bound, per cent of control (NTRK3 (human)): 100% |
| COc1ccc(N(C(=O)Oc2cc(C(=O)Nc3cccc(C(F)(F)F)c3)ccc2C)c2ccnc(Nc3ccc(N4CCN(C)CC4)cc3)n2)c(OC)c1 | 100 | 9.7 | 100 | 100 | 100 | 100 | 100 | 0.45 | 100 | 100 | 100 | 100 | 100 | 100 | 100 | 100 | 100 | 100 | 1.2 | 100 | kinase still bound, per cent of control [3]: 27%; kinase still bound, per cent of control (MAP4K5 (human)): 1.6%; kinase still bound, per cent of control (CSK (human)): 1.2%; kinase still bound, per cent of control (TNIK (human)): 12%; kinase still bound, per cent of control (STK17B (human)): 100%; kinase still bound, per cent of control (CaMK1 (human)): 100%; kinase still bound, per cent of control (MAP2K2 (human)): 100%; kinase still bound, per cent of control [4]: 23%; kinase still bound, per cent of control (PRKG2 (human)): 100%; kinase still bound, per cent of control (NTRK3 (human)): 13% |
